Assay results: patent publication US20250326753A1, “DUAL CXCR4-BTK INHIBITORS” (X4 Pharmaceuticals, Inc., priority 2022, published 2025)
pIC50: −log10 of the molar value. Like-named read-outs stand apart in the source and are kept apart here.

Key:
RIPK5 = molecular target: T1, RIPK5 (Homo sapiens, UniProt Q6XUX3); experiment: PanQinase kinase panel: RIPK5; type: biochemical; details: read-out: INHIBITORY EFFECT @ 1 uM: RIPK5
T1 construct: purchased Reaction Biology Europe GmbH
T1 sequence (Q6XUX3 1-929): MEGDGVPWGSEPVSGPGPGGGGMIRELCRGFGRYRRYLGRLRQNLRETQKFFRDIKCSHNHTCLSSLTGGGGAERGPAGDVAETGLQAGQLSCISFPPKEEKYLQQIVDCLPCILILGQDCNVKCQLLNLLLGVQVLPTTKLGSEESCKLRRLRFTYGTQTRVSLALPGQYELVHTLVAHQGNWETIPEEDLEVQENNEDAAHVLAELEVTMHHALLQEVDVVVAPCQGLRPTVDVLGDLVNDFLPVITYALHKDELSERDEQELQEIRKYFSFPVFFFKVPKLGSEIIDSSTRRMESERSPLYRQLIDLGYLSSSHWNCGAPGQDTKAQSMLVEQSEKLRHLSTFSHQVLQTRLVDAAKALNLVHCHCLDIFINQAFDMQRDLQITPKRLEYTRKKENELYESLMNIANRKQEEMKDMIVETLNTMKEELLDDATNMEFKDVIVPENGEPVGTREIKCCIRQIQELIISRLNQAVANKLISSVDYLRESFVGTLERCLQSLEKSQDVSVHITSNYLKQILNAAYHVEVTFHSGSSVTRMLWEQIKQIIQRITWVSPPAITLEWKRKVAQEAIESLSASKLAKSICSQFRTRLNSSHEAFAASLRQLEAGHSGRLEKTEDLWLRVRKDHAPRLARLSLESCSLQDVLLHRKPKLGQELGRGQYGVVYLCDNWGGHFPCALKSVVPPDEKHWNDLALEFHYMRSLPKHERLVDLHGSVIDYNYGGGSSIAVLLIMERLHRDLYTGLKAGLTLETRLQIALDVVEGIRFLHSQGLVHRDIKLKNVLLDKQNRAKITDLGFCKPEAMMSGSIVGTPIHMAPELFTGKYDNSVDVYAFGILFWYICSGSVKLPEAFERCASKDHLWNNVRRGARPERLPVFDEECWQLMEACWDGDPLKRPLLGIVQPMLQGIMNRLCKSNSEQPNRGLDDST
Experimental: (§1) Screening procedures were performed in accordance with the company's on-line protocol [accessed on-line Mar.
(§2) For each kinase, the median value of the cpm of three wells was defined as “low control” (n=3). This value reflects unspecific binding of radioactivity to the plate in the absence of a protein kinase but in the presence of the substrate. Additionally, for each kinase the median value of the cpm of three other wells was taken as the “high control,” i.e. full activity in the absence of any inhibitor (n=3). The difference between high and low control of each enzyme was taken as 100% activity.
(§3) As part of the data evaluation the low control of each kinase was subtracted from the high control value as well as from their corresponding “compound values”. The residual activity (in %) for each compound well was calculated by using the following formula: Res. Activity (%)=100×[(signal of compound−low control)/(high control−low control)].

RIPK2 = molecular target: T2, RIPK2 (Homo sapiens, UniProt O43353); experiment: PanQinase kinase panel: RIPK2; type: biochemical; details: read-out: INHIBITORY EFFECT @ 1 uM: RIPK2
T2 construct: purchased Reaction Biology Europe GmbH
T2 sequence (O43353 whole entry): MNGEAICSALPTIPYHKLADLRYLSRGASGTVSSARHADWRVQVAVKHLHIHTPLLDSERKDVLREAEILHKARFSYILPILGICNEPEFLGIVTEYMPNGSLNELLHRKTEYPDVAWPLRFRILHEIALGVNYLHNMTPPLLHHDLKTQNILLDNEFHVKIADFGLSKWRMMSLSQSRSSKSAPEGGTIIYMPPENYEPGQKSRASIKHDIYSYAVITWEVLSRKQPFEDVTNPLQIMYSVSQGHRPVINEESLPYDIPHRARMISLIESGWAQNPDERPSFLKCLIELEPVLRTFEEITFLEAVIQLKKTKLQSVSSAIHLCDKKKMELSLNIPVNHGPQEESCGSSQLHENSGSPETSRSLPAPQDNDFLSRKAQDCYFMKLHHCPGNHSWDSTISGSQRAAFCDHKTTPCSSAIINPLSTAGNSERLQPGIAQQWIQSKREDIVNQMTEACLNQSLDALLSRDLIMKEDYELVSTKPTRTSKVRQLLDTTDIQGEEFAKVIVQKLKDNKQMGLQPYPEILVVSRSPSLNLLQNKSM
Experimental: as §1, §2, §3

LRRK2 = molecular target: T3, LRRK2 (Homo sapiens, UniProt Q5S007); experiment: PanQinase kinase panel: LRRK2; type: biochemical; details: read-out: INHIBITORY EFFECT @ 1 uM: LRRK2
T3 construct: purchased Reaction Biology Europe GmbH
T3 sequence (Q5S007 whole entry): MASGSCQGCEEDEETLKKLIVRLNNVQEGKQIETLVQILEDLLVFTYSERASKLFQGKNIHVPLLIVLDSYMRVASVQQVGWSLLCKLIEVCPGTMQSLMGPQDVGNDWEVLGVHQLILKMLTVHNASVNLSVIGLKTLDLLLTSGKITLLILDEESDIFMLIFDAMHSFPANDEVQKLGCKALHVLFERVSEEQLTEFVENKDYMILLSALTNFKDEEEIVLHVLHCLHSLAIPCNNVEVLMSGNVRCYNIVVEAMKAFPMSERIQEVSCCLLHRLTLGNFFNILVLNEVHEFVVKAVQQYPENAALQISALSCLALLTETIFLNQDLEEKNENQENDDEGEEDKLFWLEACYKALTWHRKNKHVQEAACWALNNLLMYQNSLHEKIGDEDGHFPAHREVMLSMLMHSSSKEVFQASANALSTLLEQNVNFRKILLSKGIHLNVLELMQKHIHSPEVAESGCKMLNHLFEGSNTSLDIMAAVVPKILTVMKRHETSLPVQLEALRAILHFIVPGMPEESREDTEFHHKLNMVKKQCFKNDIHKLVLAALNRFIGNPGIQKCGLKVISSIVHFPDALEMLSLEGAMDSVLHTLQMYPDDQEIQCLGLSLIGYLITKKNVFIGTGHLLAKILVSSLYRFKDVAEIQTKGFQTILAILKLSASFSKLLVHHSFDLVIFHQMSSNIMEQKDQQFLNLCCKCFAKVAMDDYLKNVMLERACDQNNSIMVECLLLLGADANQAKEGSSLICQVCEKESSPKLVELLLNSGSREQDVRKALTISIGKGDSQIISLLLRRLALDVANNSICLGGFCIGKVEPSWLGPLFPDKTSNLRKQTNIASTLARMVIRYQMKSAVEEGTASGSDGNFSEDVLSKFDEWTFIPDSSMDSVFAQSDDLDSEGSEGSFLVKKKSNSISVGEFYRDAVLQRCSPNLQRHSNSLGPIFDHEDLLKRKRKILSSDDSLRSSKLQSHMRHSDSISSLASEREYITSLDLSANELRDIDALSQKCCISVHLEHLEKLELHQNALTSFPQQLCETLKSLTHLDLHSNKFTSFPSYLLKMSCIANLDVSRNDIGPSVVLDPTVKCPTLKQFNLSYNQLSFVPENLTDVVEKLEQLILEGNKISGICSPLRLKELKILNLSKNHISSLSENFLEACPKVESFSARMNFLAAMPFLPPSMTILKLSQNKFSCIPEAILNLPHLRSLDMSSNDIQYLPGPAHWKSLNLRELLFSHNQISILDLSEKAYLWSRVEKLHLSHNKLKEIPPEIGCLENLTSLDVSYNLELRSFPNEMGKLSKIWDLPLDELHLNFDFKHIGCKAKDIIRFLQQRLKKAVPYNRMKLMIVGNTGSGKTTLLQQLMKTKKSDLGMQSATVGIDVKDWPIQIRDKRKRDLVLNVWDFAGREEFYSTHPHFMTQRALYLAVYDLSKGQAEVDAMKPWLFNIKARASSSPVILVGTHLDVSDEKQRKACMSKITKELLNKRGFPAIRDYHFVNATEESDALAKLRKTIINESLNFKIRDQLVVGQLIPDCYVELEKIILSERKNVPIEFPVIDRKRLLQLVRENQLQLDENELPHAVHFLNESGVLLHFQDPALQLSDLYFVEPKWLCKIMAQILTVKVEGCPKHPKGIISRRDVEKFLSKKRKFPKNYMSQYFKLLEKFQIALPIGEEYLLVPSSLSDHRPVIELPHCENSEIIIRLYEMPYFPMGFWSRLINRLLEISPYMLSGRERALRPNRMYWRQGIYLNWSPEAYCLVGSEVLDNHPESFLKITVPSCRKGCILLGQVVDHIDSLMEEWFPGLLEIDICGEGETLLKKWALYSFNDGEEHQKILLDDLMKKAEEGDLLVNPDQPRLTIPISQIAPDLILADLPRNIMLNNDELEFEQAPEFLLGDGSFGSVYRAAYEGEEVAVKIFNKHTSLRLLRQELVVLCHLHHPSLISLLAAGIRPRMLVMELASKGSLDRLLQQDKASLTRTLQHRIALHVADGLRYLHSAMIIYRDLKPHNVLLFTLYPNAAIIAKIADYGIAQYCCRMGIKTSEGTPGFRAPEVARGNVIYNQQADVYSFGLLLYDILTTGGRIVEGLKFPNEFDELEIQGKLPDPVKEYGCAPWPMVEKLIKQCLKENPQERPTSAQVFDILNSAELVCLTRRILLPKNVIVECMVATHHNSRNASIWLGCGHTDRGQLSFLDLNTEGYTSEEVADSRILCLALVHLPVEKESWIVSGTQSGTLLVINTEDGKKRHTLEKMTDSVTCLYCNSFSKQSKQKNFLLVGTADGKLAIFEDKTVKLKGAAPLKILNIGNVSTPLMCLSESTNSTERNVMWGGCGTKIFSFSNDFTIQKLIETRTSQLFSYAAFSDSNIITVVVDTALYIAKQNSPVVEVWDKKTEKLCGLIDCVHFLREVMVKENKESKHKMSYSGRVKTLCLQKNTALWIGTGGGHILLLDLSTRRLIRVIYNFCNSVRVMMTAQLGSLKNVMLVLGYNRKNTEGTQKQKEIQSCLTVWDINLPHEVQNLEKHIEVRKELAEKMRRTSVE
Experimental: as §1, §2, §3

U-87 MG = experiment: Glioblastoma multiforme cell proliferation assay (CellTiter Glo), U-87 MG; type: cell-based; details: Homo sapiens; for Emax: read-out: GBM-U87MG Cell Proliferation Emax %
Experimental: Inhibition of glioblastoma multiforme cell proliferation by compounds of the present invention was evaluated in U-87 MG (ATCC; Cat. No. HTB-14; Lot. No. 5018014) and T98G (ATCC; Cat. No. CRL-1690; Lot. No. 58267513) cell lines. These are adherent cell lines isolated from glioblastoma multiforme/malignant glioma, which express both CXCR4 and BTK (see Zhou et al. 2002 and Yue et al. 2017).
Cell viability was analyzed with the CellTiter Glo Cell assay kit ([…], Cat. No. G7573, Lot. No. 0000474103), according to the manufacturer's instruction.
U-87 MG and T98G cells were seeded onto 384-well opaque-walled clear bottom plates (Corning, Cat. No. 3765, Lot. No. 34319047) in EMEM (Invitrogen, Cat. No. 11095-080; Lot. No. 2276656) supplemented with 10% FBS (Invitrogen, Cat. No. 10099-141C, Lot. No. 2145169CP), at a seeding density of 1000 or 1200 cells per well, respectively, and then incubated in 5% CO2 at 37° C. overnight.
Compounds were prepared as stock solutions of 30 mM in DMSO (Sigma, Cat. No. 276855-1L. Lot. No. SHBL5610). Compounds were added to the cells, with 10 dose points in duplicates, in 3-fold dilution from a top concentration of 30 μM (final DMSO concentration […]), and incubated in 5% CO2 at 37° C. for 96 hr.
The 384-well plates were equilibrated at room temperature for approximately 30 min. 25 μl of CellTiter-Glo® Reagent was added to each well and mixed for 10 min on an orbital shaker to induce cell lysis. The 384-well plates were incubated at room temperature for 10 min to stabilize luminescent signal. Luminescence was detected on a PerkinElmer EnVision Multimode Plate Reader (measurement time 0.1s) as relative luminescence units (RLU).

[1] = Table 6A, cell viability, 96 hr, read-out: U-87 MG IC50

Row | SMILES | inhibition at 1 µM (RIPK5) | inhibition at 1 µM (RIPK2) | inhibition at 1 µM (LRRK2) | Emax (U-87 MG; Table 6B) | IC50 (U-87 MG; read-out: GBM-U87MG Cell Proliferation IC50 uM) | pIC50 (U-87 MG; Table 6B, read-out: GBM-U87MG Cell Proliferation IC50) | pIC50 (U-87 MG; [1])
1 | O=C(c1ccc(Oc2ccccc2)cc1Cl)c1c[nH]c2ncnc(N[C@@H]3CC[C@@H](CO)OC3)c12 [ARQ-531, (2-chloro-4-phenoxyphenyl) (4-(((3R,6S)-6-(hydroxymethyl)tetrahydro-2H-pyran-3-yl)amino)-7H-pyrrolo[2,3-d]pyrimidin-5-yl) methanone] | 70 to 89% | 90 to 100% | 50 to 69% | – | – | – | –
2 | Cc1cccnc1[C@H]1CCC[C@@H](c2ncccc2C)N1CCN1CCN(C(=O)c2ccc(-c3cc4c(-c5cccc(NC(=O)c6ccccc6)c5C)ncnc4[nH]3)cc2)CC1 [Compound I-10, N-(3-(6-(4-(4-(2-((2R,6S)-2,6-bis(3-methylpyridin-2-yl)piperidin-1-yl)ethyl)piperazine-1-carbonyl)phenyl)-7H-pyrrolo[2,3-d]pyrimidin-4-yl)-2-methylphenyl)benzamide] | < 50% | < 50% | < 50% | 101% | 0.76 µM | – | –
3 | Cc1cc(-c2ccnc(Nc3cnn(CCN4[C@@H](c5ncccc5C)CCC[C@H]4c4ncccc4C)c3)n2)ccc1CNC(=O)N1CC(OC(C)C)C1 [Compound I-11] | – | – | – | 96% | – | 6.18 | –
4 | Cc1cccnc1[C@H]1CCC[C@@H](c2ncccc2C)N1CCCCNC(=O)[C@@H]1CC[C@@H](Nc2ncnc3[nH]cc(C(=O)c4ccc(Oc5ccccc5)cc4Cl)c23)CO1 [Compound I-16] | – | – | – | – | – | – | 5.89
5 | Cc1cccnc1[C@H]1CCC[C@@H](c2ncccc2C)N1CCCCNC(=O)OC[C@@H]1CC[C@@H](Nc2ncnc3[nH]cc(C(=O)c4ccc(Oc5ccccc5)cc4Cl)c23)CO1 [Compound I-18] | – | – | – | – | – | – | 5.92
6 | COc1ccc(F)cc1C(=O)NCc1ccc(-c2nn([C@@H](C)C(F)(F)F)c(N)c2C(N)=O)cc1 [LOXO-305, pirtobrutinib] | < 50% | < 50% | < 50% | – | – | – | –
7 | C=CC(=O)N1CCC([C@@H]2CCNc3c(C(N)=O)c(-c4ccc(Oc5ccccc5)cc4)nn32)CC1 [Zanubrutinib, (7S)-2-(4-phenoxyphenyl)-7-(1-prop-2-enoylpiperidin-4-yl)-4,5,6,7-tetrahydropyrazolo[1,5-a]pyrimidine-3-carboxamide] | < 50% | 50 to 69% | < 50% | – | – | – | –
